From PubChem BioAssay AID1963971 (Molecular Pharmacology Branch, DTP, NCI, 2024)

Tested on: 953936-095-R-J2-PDC spheroids with HUVEC/MSC, viability
Experiment: Anticancer human tumor 953936-095-R-J2-PDC patient-derived cervical squamous cell carcinoma cell line growth inhibition [PI3K]
Conditions: for IC50: curve of first compound; for viability, T/C: stronger effect = lower value
Summary of the method: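 Spheroid viability read-out. Co-cultures contained the tumor line plus HUVEC and human MSCs. Each agent was paired with a PI3K inhibitor (inavolisib, alpelisib, duvelisib, copanlisib) across half-log dilutions starting at clinical Cmax, or at 10 microM when Cmax was unknown.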
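Also: spheroids exposed to compounds for seven days before read-out.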

## C#Cc1c(F)ccc2cc(O)cc(-c3ncc4c(N5CC6CCC(C5)N6)nc(OCC56CCCN5CC(F)C6)nc4c3F)c12 (configuration not stated) + CC(Nc1ncnc2nc[nH]c12)c1cc2cccc(Cl)c2c(=O)n1-c1ccccc1
Second compound 0.0316 µM
  IC50: > 10 µM
Second compound 0.1 µM
  IC50: > 10 µM
Second compound 0.316 µM
  IC50: > 10 µM
Second compound 1 µM
  IC50: > 10 µM
Second compound 3.16 µM
  IC50: 6.34 µM
Second compound 10 µM
  IC50: 1.8 µM
Second compound 0.0316 µM, first compound 0.0316 µM
  viability, T/C: 90.6%
Second compound 0.0316 µM, first compound 0.1 µM
  viability, T/C: 91.9%
Second compound 0.0316 µM, first compound 0.316 µM
  viability, T/C: 105%
Second compound 0.0316 µM, first compound 1 µM
  viability, T/C: 97.1%
Second compound 0.0316 µM, first compound 3.16 µM
  viability, T/C: 91.3%
Second compound 0.0316 µM, first compound 10 µM
  viability, T/C: 67.2%
Second compound 0.1 µM, first compound 0.0316 µM
  viability, T/C: 95.2%
Second compound 0.1 µM, first compound 0.1 µM
  viability, T/C: 98.3%
Second compound 0.1 µM, first compound 0.316 µM
  viability, T/C: 99.9%
Second compound 0.1 µM, first compound 1 µM
  viability, T/C: 104%
Second compound 0.1 µM, first compound 3.16 µM
  viability, T/C: 80.2%
Second compound 0.1 µM, first compound 10 µM
  viability, T/C: 70.8%
Second compound 0.316 µM, first compound 0.0316 µM
  viability, T/C: 94%
Second compound 0.316 µM, first compound 0.1 µM
  viability, T/C: 95.2%
Second compound 0.316 µM, first compound 0.316 µM
  viability, T/C: 90.5%
Second compound 0.316 µM, first compound 1 µM
  viability, T/C: 82.2%
Second compound 0.316 µM, first compound 3.16 µM
  viability, T/C: 75.2%
Second compound 0.316 µM, first compound 10 µM
  viability, T/C: 67.8%
Second compound 1 µM, first compound 0.0316 µM
  viability, T/C: 96.2%
Second compound 1 µM, first compound 0.1 µM
  viability, T/C: 83.5%
Second compound 1 µM, first compound 0.316 µM
  viability, T/C: 84.7%
Second compound 1 µM, first compound 1 µM
  viability, T/C: 86.9%
Second compound 1 µM, first compound 3.16 µM
  viability, T/C: 80%
Second compound 1 µM, first compound 10 µM
  viability, T/C: 57.2%
Second compound 3.16 µM, first compound 0.0316 µM
  viability, T/C: 87.9%
Second compound 3.16 µM, first compound 0.1 µM
  viability, T/C: 79.5%
Second compound 3.16 µM, first compound 0.316 µM
  viability, T/C: 76%
Second compound 3.16 µM, first compound 1 µM
  viability, T/C: 74.3%
Second compound 3.16 µM, first compound 3.16 µM
  viability, T/C: 60.3%
Second compound 3.16 µM, first compound 10 µM
  viability, T/C: 42.6%
Second compound 10 µM, first compound 0.0316 µM
  viability, T/C: 55.8%
Second compound 10 µM, first compound 0.1 µM
  viability, T/C: 65.4%
Second compound 10 µM, first compound 0.316 µM
  viability, T/C: 51.7%
Second compound 10 µM, first compound 1 µM
  viability, T/C: 57.3%
Second compound 10 µM, first compound 3.16 µM
  viability, T/C: 43.3%
Second compound 10 µM, first compound 10 µM
  viability, T/C: 31.2%
